Results published in patent publication US6235707A, “Anticoagulant peptidyl-arginine aldehyde derivatives” (Gyogyszerkutato Intezet Kft., priority 1996, dated 2001).

Assays:
[1] = target: T1, clot-bound fXa (Homo sapiens, UniProt P00742); test: inhibition of plasma clot-bound factor Xa (Methods M1, M2); assay type: biochemical; details: text b187, well below
T1 construct: from tissue; host or cells: clot of recalcified human platelet-rich plasma
Description: Plasma-clot was obtained by recalcificating platelet-rich human plasma, and fibrin gel by clotting human fibrinogen with human thrombin. For the activity measures of fXa and thrombin Z-D-Arg-Gly-Arg-pNA or Tos-Gly-Pro-Arg-pNA substrates were used in agreement with Methods M1-M3.
Preparation of Clots from Human Plasma
a) Platelet-rich plasma is prepared by centrifuging a 9:1 mixture of human blood and 3.8% sodium citrate solution for 5 min. at 240×g.
b) 200 μl platelet-rich plasma and 80 μl 40 mM CaCl2 solution are allowed to stand at room temperature for 1 hour. The thus-formed clot is washed with 6×2 ml of 0.9% NaCl solution with gentle stirring to remove the residual enzymes (thrombin and factor Xa). The washing medium is assayed for thrombin-like activity as follows:
c) To 400 μl of washing medium 100 μl of 1 mM Tos-Gly-Pro-Arg-pNA substrate solution is added, the mixture is incubated for 30 min at 37° C., then the reaction is stopped with 100 μl of 50% acetic acid. From this mixture 150 μl aliquots are applied onto a 96-well microtitre plate and the extinction coefficients are measured at 405 nm (ELISA READER SLT Laborinstrument GmbH, Austria). […]
c) From each reaction vessel 150 μl is applied onto a 96 well microtitre plate and extinction coefficients are measured at 405 nm (ELISA READER SLT Laborinstrument GmbH, Austria). […]

[2] = test system: citrate plasma; test: activated partial thromboplastin time (APTT) plasma clotting test; assay type: biochemical; details: Table 3; twofold prolongation compared to control; read-out: A: anticoagulant IC50, APTT
Description: (§1) Anticoagulant activity (i.e. inhibition of the proteolytic reactions in the process) is measured by anticoagulant tests, e.g. in the thrombin time (TT), activated partial thromboplastin time (APTT) and prothrombin time (PT) tests [E. J. W. Bovie et al., Mayo Clinic Laboratory Manual of Haemostasis; W. B. Saunders Co., Philadelphia (1971)]. Plasma, inhibited in spontaneous coagulation, e.g. citrate-plasma, is made to coagulate and the required coagulation time is measured. Upon the action of anticoagulants the coagulation time is prolonged proportionally to the inhibition of the reaction(s) in the process. The anticoagulant effect can be characterised by the substance concentration required to prolong the coagulation time twofold compared to the control (IC50). The effect of anticoagulants on individual coagulant proteases is measured by the amidolytic method [R. Lottenberg et al., Methods in Enzymol. 80, 341 (1981); G. Cleason, Blood Coagulation and Fibrinolysis 5, 411 (1994)]. The isolated active factor (e.g. thrombin, fXa) and its chromogen or fluorogen peptide-amide substrate are reacted in the presence or absence of the inhibitor, resp. The enzyme inhibiting action is characterised by the inhibitory constant (IC50) measured during amidolysis.
(§2) In the TT test coagulation is initiated by the thrombin added to the citrate plasma. In the system 22 pmol/ml of thrombin is functioning and its inhibition can be measured on the fibrinogen (one of the natural substrates of thrombin) in the presence of plasma components. In the APTT and PT tests the full coagulation process takes place. Depending on the activator fX is activated either by the extrinsic or the intrinsic pathway. The generated fXa activates prothrombin to thrombin which, in turn, triggers plasma coagulation. The coagulation time is prolonged if the enzymes or one of them is inhibited by the inhibitor. In the APTT and PT tests at most 40 pmol/ml Xa can be generated (this is the full amount of factor X present in both systems) while 150 pmol/ml (APTT) and 350 pmol/ml (PT) of thrombin are generated [B. Kaiser et al., Thromb. Res. 65, 157 (1992)].
(§3) The in vitro anticoagulant effects of the compounds of general formula (I) was measured by the prothrombin time (PT), activated partial thromboplastin time (APTT) and thrombin time (TT) tests [D. Bagdy et al., Thromb. Haemost. 67, 325 (1992)]. The fxa-inhibiting effect of the compounds was also determined using the Bz-Ile-Glu-Gly-Arg-pNA chromogen substrate (see method M6).

[3] = test system: citrate plasma; test: prothrombin time (PT) plasma clotting test; assay type: biochemical
Description: as §1, §2, §3

[4] = target: T2, isolated human fXa (Homo sapiens, UniProt P00742); test: fXa inhibition in solution, amidolytic method on Bz-Ile-Glu-Gly-Arg-pNA chromogen substrate (Method M6); assay type: biochemical; details: Table 3; isolated human fXa, Bz-Ile-Glu-Gly-Arg-pNA; read-out: B: fXa inhibiting IC50
T2 construct: The isolated active factor (e.g. thrombin, fXa) and its chromogen or fluorogen peptide-amide substrate are reacted; purchased SIGMA
Description: as §1, §3
Determination of Factor Xa Inhibition in Solution on a 96-well Microtitre Plate
a) By means of phosphate buffer (0.1M sodium phosphate and 0.05M sodium chloride, pH=7.4) 1.3 E/ml solution is prepared from human factor Xa (SIGMA), and 0.1-1.0-10 and 100 μg/ml solutions from the peptide inhibitors. The Bz-Ile-Glu-Gly-Arg-pNA substrate is used in distilled water solution ([…]).
b) From the control and the peptide inhibitor solutions (3 parallel samples of each concentration) 30-30 μl aliquots are placed into the wells. 30 μl of factor Xa, 90 μl of buffer and 150 μl of substrate are added to the peptide solution and the extinction is determined after 10 min. at 405 nm. Thereafter the steps are the same as in M2/c.

[5] = target: thrombin (Homo sapiens, UniProt P00734); test: thrombin time (TT) plasma clotting test; assay type: biochemical; details: Table 3; twofold prolongation compared to control; read-out: A: anticoagulant IC50, TT
Description: as §1, §2, §3

[6] = target: urokinase (UK) (Homo sapiens, UniProt P00749); test: fibrin-plate method, plasmin formation induced by urokinase; assay type: biochemical; details: related to the activity of C1 (1/IC50 = 1)
Text: (§4) The inhibitory effect of the new compounds of the invention on plasmin (PL) as well as on plasmin formation induced by tissue plasminogen activator (tPA) and urokinase (UK) was examined by the fibrin-plate method [D. Bagdy et al.: Thromb. Haemost. 67, 325 (1992)]. Compounds C1 and C5 served as controls. […] V. Jackson et al.: J. Cardiovasc. Pharmacol. 21, 587 (1993))]. In Table 4 the results obtained with the new compounds 1 and 2 as well as those with controls C1 and C5 are presented as an example.

[7] = target: tissue plasminogen activator (tPA) (Homo sapiens, UniProt P00750); test: fibrin-plate method, plasmin formation induced by tPA; assay type: biochemical; details: related to the activity of C1 (1/IC50 = 1)
Text: as §4

[8] = target: plasmin (PL) (Homo sapiens, UniProt P00747); test: fibrin-plate method, plasmin; assay type: biochemical; details: related to the activity of C1 (1/IC50 = 1)
Text: as §4

[9] = test system: thrombin-induced blood platelet aggregation; test: ex vivo inhibition of thrombin-induced blood platelet aggregation (PAI) in rabbits after p.o. dosing; set-up: species or system rabbit; details: p.o. 5 mg/kg
Description: (§5) The anticoagulant and platelet aggregation inhibiting effect of the compounds of general formula (I) was studied in New Zealand white rabbits ex vivo according to D. Bagdy et al. [Thromb. Haemost. 67, 357 (1992)]. The compounds were dissolved in buffered isotonic saline solution and administered i.v. (0,04-5.0 mg/kg) or by infusion (0.25-5.0 mg/kg/h) or subcutaneously (0.5-6.0 mg/kg) or p.o. (2.5-20 mg/kg). The effect of the compounds was detectable already within 30 minutes following p.o. administration, peak values were attained after 60-180 minutes and the therapeutic level was maintained dose-dependently for 3→6 hours.
(§6) The in vivo effect of ethoxycarbonyl-3-cyclobutyl-D-alanyl-L-prolyl-L-arginine aldehyde (1) is presented in detail in Tables 6 and 7. The corresponding values of C1 are listed as controls. The compound was administered p.o. in doses of 5 mg/kg. The blood samples drawn from the caudal vein in every 30-60 minutes were analysed. The whole blood clotting time (WBCT) and the inhibition of thrombin-induced blood platelet aggregation (PAI) were determined. The activated partial thromboplastin time (APTT) and the thrombin time (TT) in the citrate plasma obtained from the blood sample were also measured. The APTT and TT values are compiled in Table 6 and the WBCT and PAI values in Table 7.

[10] = test system: New Zealand white rabbits; test: ex vivo TT in citrate plasma of rabbits after p.o. dosing; set-up: species or system rabbit; details: p.o. 5 mg/kg, 90 min
Description: as §5, §6

[11] = C. V. Jackson et al. 1993; cited from earlier work

plasmin (PL), sequence (P00747 581-810 limits assumed, species assumed): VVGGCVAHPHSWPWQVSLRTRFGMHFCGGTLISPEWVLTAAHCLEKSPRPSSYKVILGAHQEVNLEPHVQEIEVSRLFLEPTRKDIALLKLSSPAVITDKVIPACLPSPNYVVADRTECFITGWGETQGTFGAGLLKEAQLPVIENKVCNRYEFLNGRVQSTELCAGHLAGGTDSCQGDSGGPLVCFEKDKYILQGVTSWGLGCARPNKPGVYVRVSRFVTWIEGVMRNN
plasmin (PL), sequence (P00747 97-580 partner limits assumed, species assumed): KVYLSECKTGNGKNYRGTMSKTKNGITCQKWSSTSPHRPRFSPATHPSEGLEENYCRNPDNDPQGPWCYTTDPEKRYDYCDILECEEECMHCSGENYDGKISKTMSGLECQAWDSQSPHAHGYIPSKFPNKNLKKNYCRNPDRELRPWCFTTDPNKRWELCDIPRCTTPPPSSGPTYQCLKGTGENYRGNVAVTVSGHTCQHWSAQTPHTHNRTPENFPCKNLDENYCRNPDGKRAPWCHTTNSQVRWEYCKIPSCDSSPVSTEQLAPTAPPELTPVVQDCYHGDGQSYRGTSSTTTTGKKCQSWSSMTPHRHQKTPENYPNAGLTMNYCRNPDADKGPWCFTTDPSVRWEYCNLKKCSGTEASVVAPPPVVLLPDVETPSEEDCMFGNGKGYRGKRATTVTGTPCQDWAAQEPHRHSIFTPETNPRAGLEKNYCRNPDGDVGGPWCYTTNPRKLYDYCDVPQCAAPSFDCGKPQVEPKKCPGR
tissue plasminogen activator (tPA), sequence (P00750 36-562, species assumed): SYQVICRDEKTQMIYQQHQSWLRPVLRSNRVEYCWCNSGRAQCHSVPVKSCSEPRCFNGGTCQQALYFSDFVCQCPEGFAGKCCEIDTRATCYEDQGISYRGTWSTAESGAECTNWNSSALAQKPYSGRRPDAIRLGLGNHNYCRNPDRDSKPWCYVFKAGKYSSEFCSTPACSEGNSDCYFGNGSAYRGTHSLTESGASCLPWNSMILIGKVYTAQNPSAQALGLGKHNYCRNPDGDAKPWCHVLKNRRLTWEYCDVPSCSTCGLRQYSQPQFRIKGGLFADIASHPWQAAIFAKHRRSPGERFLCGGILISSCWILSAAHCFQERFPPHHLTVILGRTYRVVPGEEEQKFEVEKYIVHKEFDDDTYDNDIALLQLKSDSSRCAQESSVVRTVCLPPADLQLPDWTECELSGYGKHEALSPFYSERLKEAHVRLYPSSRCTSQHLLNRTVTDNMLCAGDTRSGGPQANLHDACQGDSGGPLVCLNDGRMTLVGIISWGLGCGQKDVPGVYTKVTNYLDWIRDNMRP
T1 sequence (P00742 235-488 limits assumed): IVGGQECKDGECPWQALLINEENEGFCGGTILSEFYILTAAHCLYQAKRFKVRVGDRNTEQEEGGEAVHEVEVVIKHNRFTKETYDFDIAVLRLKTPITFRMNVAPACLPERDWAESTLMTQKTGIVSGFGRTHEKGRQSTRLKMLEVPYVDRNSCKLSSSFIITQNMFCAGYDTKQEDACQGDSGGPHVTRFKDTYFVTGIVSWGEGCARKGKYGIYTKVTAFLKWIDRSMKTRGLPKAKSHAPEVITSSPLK
T1 sequence (P00742 41-179 partner limits assumed): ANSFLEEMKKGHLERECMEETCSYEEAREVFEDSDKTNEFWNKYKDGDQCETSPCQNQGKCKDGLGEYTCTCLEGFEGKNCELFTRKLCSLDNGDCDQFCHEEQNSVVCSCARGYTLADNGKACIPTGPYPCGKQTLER
T2 sequence (P00742 235-488 limits assumed): as the sequence (P00742 235-488 limits assumed) above
T2 sequence (P00742 41-179 partner limits assumed): as the sequence (P00742 41-179 partner limits assumed) above

| IC50 [1] [nM] | IC50 [2] [nM] | IC50 ([3]; Table 3, twofold prolongation compared to control, read-out: A: anticoagulant IC50, PT) [nM] | IC50 [4] [nM] | IC50 [5] [nM] | SMILES | B: relative efficiency, UK [6] | B: relative efficiency, tPA [7] | B: relative efficiency, PL [8] | IC50 ([3]; Table 2, concentration prolonging clotting time twofold, read-out: A: anticoagulation IC50, PT) [nM] | PAI (%), percentual inhibition of platelet aggregation ([9]; 0 min) [%] | PAI (%), percentual inhibition of platelet aggregation ([9]; 30 min) [%] | PAI (%), percentual inhibition of platelet aggregation ([9]; 45 min) [%] | PAI (%), percentual inhibition of platelet aggregation ([9]; 60 min) [%] | PAI (%), percentual inhibition of platelet aggregation ([9]; 90 min) [%] | PAI (%), percentual inhibition of platelet aggregation ([9]; 120 min) [%] | PAI (%), percentual inhibition of platelet aggregation ([9]; 180 min) [%] | PAI (%), percentual inhibition of platelet aggregation ([9]; 240 min) [%] | TT relative clotting time [10] | antifibrinolytic effect in vivo [11] |
| --- | --- | --- | --- | --- | --- | --- | --- | --- | --- | --- | --- | --- | --- | --- | --- | --- | --- | --- | --- |
| < 1000 | 600 | 1700 | 36 | 190 | CC(C)OC(=O)N[C@H](CC1CCC1)C(=O)N1CCC[C@H]1C(=O)N[C@H](C=O)CCCNC(=N)N [Example 3, Isopropoxycarbonyl-3-cyclobutyl-D-alanyl-L-prolyl-L-arginine aldehyde] |  |  |  |  |  |  |  |  |  |  |  |  |  |  |
|  |  |  |  |  | CN[C@H](Cc1ccccc1)C(=O)N1CCC[C@H]1C(=O)N[C@H](C=O)CCCNC(=N)N [Example C1, D-MePhe-Pro-Arg-H, reference compound] | 1.0 | 1.0 | 1.0 | 2930 | 1.0 | 52.8 ± 14.7 | 58.4 ± 15.6 | 54.2 ± 11.6 | 83.2 ± 8.9 | 75.2 ± 12.3 | 47.5 ± 20.9 | 32.2 ± 16.0 | 10.50 ± 4.59 | insignificant |
